Measurements published in patent publication US20250243196A1, “CITRON KINASE INHIBITORS” (The Cleveland Clinic Foundation, priority 2021, published 2025).

The compounds below were run against Citron kinase (Homo sapiens (Human), UniProt O14578) (assay: Radiometric citron kinase assay (Eurofins Cat #16-040KP)). Conditions: mean of at least two independent assays; read-out: Radiometric CitK IC50.
Format: biochemical
Excerpt: In some embodiments, the step of contacting the sample with the compound comprises administering the compound to a subject (e.g., a subject) suffering from cancer. Methods of determining kinase inhibition are well known in the art. For example, kinase activity of an enzyme and the inhibitory capacity of a test compound can be determined by measuring enzyme specific phosphorylation of a substrate. Commercial assays and kits can be employed. For example, kinase inhibition can be determined using a radiometric binding assay, such as using KinaseProfiler™ technology (Eurofins Discovery). This assay method directly detects product formation without the use of modified substrates or coupling enzymes. Test compounds are incubated with kinase, substrate, required cofactors and radioisotope labeled ATP. Following incubation, unreacted radioactive ATP is removed by washing and incorporation of the radiolabeled phosphate into the kinase substrate is assayed to detect phosphoryltransferase activity, which is directly proportional to the amount of phosphorylated substrate. Inhibition of the kinase by a kinase inhibitor prevents phosphorylation of the substrate and thereby limits the incorporation of radiolabeled phosphate. Such an assay is compatible with a microwell assay format, allowing simultaneous determination of IC50 of multiple compounds.
Compounds were screened for biochemical kinase activity (Eurofins Discovery, France) using one of two assays. […] All values in Table 1 are the mean of at least two independent assays.

Citron kinase, sequence (O14578 whole entry): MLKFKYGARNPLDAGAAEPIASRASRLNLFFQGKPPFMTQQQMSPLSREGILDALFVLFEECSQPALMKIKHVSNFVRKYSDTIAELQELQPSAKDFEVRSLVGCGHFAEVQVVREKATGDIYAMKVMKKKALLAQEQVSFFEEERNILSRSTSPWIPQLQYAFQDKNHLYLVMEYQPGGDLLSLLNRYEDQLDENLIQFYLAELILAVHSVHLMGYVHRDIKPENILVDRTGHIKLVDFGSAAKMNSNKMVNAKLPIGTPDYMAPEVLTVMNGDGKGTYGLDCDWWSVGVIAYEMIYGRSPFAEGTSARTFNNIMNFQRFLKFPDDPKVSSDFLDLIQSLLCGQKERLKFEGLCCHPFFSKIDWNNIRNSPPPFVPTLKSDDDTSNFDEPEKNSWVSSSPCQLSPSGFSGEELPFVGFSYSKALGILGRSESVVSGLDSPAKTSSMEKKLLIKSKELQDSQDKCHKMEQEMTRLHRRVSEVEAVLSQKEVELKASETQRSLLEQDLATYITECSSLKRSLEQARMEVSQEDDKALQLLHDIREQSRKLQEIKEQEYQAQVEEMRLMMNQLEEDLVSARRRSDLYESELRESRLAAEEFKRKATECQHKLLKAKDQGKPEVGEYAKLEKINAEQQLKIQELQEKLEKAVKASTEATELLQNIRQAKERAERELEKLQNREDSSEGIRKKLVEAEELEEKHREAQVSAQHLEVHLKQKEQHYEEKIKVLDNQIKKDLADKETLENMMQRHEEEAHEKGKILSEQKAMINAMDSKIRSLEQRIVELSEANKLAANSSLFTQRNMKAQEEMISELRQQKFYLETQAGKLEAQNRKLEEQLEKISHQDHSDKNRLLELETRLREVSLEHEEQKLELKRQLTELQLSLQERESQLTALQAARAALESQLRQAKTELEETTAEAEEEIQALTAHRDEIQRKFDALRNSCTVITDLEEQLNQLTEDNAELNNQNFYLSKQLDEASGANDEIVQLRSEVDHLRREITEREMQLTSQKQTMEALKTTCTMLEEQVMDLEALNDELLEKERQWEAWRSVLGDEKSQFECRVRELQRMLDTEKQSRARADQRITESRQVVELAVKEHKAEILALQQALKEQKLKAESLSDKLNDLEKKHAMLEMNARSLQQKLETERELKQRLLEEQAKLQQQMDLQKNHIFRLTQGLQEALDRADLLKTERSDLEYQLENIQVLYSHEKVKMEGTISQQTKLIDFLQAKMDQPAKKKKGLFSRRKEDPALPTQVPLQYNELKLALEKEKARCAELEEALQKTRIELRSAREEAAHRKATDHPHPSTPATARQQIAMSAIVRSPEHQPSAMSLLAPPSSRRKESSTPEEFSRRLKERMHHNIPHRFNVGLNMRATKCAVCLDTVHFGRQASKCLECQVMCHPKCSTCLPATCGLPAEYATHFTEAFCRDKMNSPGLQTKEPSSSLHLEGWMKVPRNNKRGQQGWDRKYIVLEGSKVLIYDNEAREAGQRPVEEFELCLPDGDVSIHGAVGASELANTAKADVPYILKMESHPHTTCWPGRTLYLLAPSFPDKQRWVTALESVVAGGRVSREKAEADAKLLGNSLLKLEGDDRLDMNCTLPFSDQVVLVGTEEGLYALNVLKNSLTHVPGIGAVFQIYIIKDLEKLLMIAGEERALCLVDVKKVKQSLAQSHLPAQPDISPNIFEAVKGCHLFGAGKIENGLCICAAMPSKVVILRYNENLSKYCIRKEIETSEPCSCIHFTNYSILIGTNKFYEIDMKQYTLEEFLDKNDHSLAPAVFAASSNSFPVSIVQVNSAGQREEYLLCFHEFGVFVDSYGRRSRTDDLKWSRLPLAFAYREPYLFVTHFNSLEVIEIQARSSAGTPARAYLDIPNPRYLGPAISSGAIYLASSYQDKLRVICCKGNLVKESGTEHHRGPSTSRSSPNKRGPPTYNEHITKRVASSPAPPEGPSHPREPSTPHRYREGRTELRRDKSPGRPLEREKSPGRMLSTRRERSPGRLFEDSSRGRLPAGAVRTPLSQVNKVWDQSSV

IC50 [nM] | Compound
598 | COc1cc(NC(=O)[C@H](N)Cc2ccccc2)ccc1-c1ccnc2[nH]ccc12 [Compound F-128, (2R)-2-Amino-N-[3-methoxy-4-(1H-pyrrolo[2,3-b]pyridin-4-yl)phenyl]-3-phenyl-propanamide]
9 | COc1nc(-c2ccnc3[nH]c(C(F)F)cc23)ccc1NC(=O)[C@H](N)CC(C)(C)C [Compound F-150, (2R)-2-Amino-N-[6-[2-(difluoromethyl)-1H-pyrrolo[2,3-b]pyridin-4-yl]-2-methoxy-3-pyridyl]-4,4-dimethyl-pentanamide]
315 | Cc1cc2c(-c3ccc(NC(=O)[C@H](N)C(C)(C)O)cc3OC(F)F)ccnc2[nH]1 [Compound F-170, (2R)-2-Amino-N-[3-(difluoromethoxy)-4-(2-methyl-1H-pyrrolo[2,3-b]pyridin-4-yl)phenyl]-3-hydroxy-3-methyl-butanamide]
307 | CC(C)(C)C[C@@H](N)C(=O)Nc1ccc(-c2ccnc3[nH]c(C(F)(F)F)cc23)cn1 [Compound F-146, (2R)-2-Amino-4,4-dimethyl-N-[5-[2-(trifluoromethyl)-1H-pyrrolo[2,3-b]pyridin-4-yl]-2-pyridyl]pentanamide]
1060 | Cc1cc(NC(=O)[C@H](N)C(C)(C)C)c(F)cc1-c1ccnc2[nH]ccc12 [Compound F-74, (2R)-2-Amino-N-[2-fluoro-5-methyl-4-(1H-pyrrolo[2,3-b]pyridin-4-yl)phenyl]-3,3-dimethyl-butanamide]
103 | Cc1cc(NC(=O)[C@H](N)CC(C)(C)C)ccc1-c1ccnc2[nH]c(C(F)(F)F)cc12 [Compound F-99, (2R)-2-Amino-4,4-dimethyl-N-[3-methyl-4-[2-(trifluoromethyl)-1H-pyrrolo[2,3-b]pyridin-4-yl]phenyl]pentanamide]
57.5 | CCc1cc(NC(=O)[C@H](N)C(C)(C)C)ccc1-c1ccnc2[nH]ccc12 [Compound F-88, (2R)-2-Amino-N-[3-ethyl-4-(1H-pyrrolo[2,3-b]pyridin-4-yl)phenyl]-3,3-dimethyl-butanamide]
21.5 | CC(C)C[C@@H](N)C(=O)Nc1ccc(-c2ccnc3[nH]ccc23)c(OC(F)F)c1 [Compound F-82, (R)-2-Amino-N-(3-(difluoromethoxy)-4-(1H-pyrrolo[2,3-b]pyridin-4-yl)phenyl)-4-methylpentanamide]
26 | Cc1cc2c(-c3ccc(NC(=O)[C@H](N)CC(C)(C)C)cn3)ccnc2[nH]1 [Compound F-145, (2R)-2-Amino-4,4-dimethyl-N-(6-(2-methyl-1H-pyrrolo[2,3-b]pyridin-4-yl)pyridin-3-yl)pentanamide]
38 | COc1nc(-c2ccnc3[nH]c(C(F)(F)F)cc23)ccc1NC(=O)[C@H](N)CC(C)(C)C [Compound F-149, (2R)-2-Amino-N-[2-methoxy-6-[2-(trifluoromethyl)-1H-pyrrolo[2,3-b]pyridin-4-yl]-3-pyridyl]-4,4-dimethyl-pentanamide]
18 | COc1nc(-c2ccnc3[nH]c(C)cc23)ccc1NC(=O)[C@H](N)CC(C)(C)C [Compound F-148, (2R)-2-Amino-N-[2-methoxy-6-(2-methyl-1H-pyrrolo[2,3-b]pyridin-4-yl)-3-pyridyl]-4,4-dimethyl-pentanamide]
7.8 | Cc1cc(NC(=O)[C@H](N)CC(C)(C)C)ccc1-c1ccnc2[nH]ccc12 [Compound F-60, (2R)-2-Amino-4,4-dimethyl-N-[3-methyl-4-(1H-pyrrolo[2,3-b]pyridin-4-yl)phenyl]pentanamide]
52.4 | CC(C)(O)[C@@H](N)C(=O)Nc1ccc(-c2ccnc3[nH]ccc23)cc1 [Compound F-31, (2R)-2-Amino-3-hydroxy-3-methyl-N-[4-(1H-pyrrolo[2,3-b]pyridin-4-yl)phenyl]butanamide]
3000 | Cc1cc2c(-c3nc(NC(=O)[C@H](N)C(C)(C)C)sc3C)ccnc2[nH]1 [Compound F-117, (2R)-2-Amino-3,3-dimethyl-N-[5-methyl-4-(2-methyl-1H-pyrrolo[2,3-b]pyridin-4-yl)thiazol-2-yl]butanamide]
48.8 | Cc1cc2c(-c3ccc(NC(=O)[C@H](N)C(C)(C)C)cc3C)ccnc2[nH]1 [Compound F-91, (2R)-2-Amino-3,3-dimethyl-N-[3-methyl-4-(2-methyl-1H-pyrrolo[2,3-b]pyridin-4-yl)phenyl]butanamide]
122 | Cc1cc2c(-c3csc(NC(=O)[C@H](N)C(C)(C)C)n3)ccnc2[nH]1 [Compound F-112, (2R)-2-Amino-3,3-dimethyl-N-[4-(2-methyl-1H-pyrrolo[2,3-b]pyridin-4-yl)thiazol-2-yl]butanamide]
144 | Cc1cc(NC(=O)[C@H](N)Cc2ccccc2)ccc1-c1ccnc2[nH]ccc12 [Compound F-127, (2R)-2-Amino-N-[3-methyl-4-(1H-pyrrolo[2,3-b]pyridin-4-yl)phenyl]-3-phenyl-propanamide]

IC50 [nM] | Compound
53 | Cc1cc2c(-c3ccc(NC(=O)[C@H](N)CC(C)(C)C)cc3OC(F)F)ccnc2[nH]1 [Compound F-169, (2R)-2-Amino-N-[3-(difluoromethoxy)-4-(2-methyl-1H-pyrrolo[2,3-b]pyridin-4-yl)phenyl]-4,4-dimethyl-pentanamide]
172 | NC(C(=O)Nc1ccc(-c2ccnc3[nH]ccc23)cc1)C1(C(F)(F)F)CC1 (stereo not drawn) [Compound F-23, 2-Amino-N-[4-(1H-pyrrolo[2,3-b]pyridin-4-yl)phenyl]-2-[1-(trifluoromethyl)cyclopropyl]acetamide]
68.1 | Cc1cc(NC(=O)[C@H](N)C(C)(C)C)ccc1-c1ccnc2[nH]c(C(F)F)cc12 [Compound F-103, (2R)-2-Amino-N-[4-[2-(difluoromethyl)-1H-pyrrolo[2,3-b]pyridin-4-yl]-3-methyl-phenyl]-3,3-dimethyl-butanamide]
519 | COc1cccc(C[C@@H](N)C(=O)Nc2ccc(-c3ccnc4[nH]c(C)cc34)c(C)c2)c1 [Compound F-157, (2R)-2-Amino-3-(3-methoxyphenyl)-N-[3-methyl-4-(2-methyl-1H-pyrrolo[2,3-b]pyridin-4-yl)phenyl]propenamide]
1420 | N[C@H](Cc1ccccc1)C(=O)Nc1ccc(-c2ccnc3[nH]ccc23)c(C(F)(F)F)c1 [Compound F-130, (2R)-2-Amino-3-phenyl-N-[4-(1H-pyrrolo[2,3-b]pyridin-4-yl)-3-(trifluoromethyl)phenyl]propanamide]
232 | COc1cc(-c2ccnc3[nH]c(C)cc23)ncc1NC(=O)[C@H](N)CC(C)(C)C [Compound F-171, (2R)-2-Amino-N-[4-methoxy-6-(2-methyl-1H-pyrrolo[2,3-b]pyridin-4-yl)-3-pyridyl]-4,4-dimethyl-pentanamide]
209 | CCN[C@H](CC(C)C)C(=O)Nc1ccc(-c2ccnc3[nH]ccc23)cc1 [Compound F-43, (2R)-2-(Ethylamino)-4-methyl-N-[4-(1H-pyrrolo[2,3-b]pyridin-4-yl)phenyl]pentanamide]
461 | Cc1cc2c(-c3ccc(NC(=O)[C@H](N)C(C)(C)F)cc3C)ccnc2[nH]1 [Compound F-173, (2S)-2-Amino-3-fluoro-3-methyl-N-[3-methyl-4-(2-methyl-1H-pyrrolo[2,3-b]pyridin-4-yl)phenyl]butanamide]
64.6 | CC(C)(C)[C@@H](N)C(=O)Nc1ccc(-c2ccnc3[nH]ccc23)cc1F [Compound F-71, (2R)-2-Amino-N-[2-fluoro-4-(1H-pyrrolo[2,3-b]pyridin-4-yl)phenyl]-3,3-dimethyl-butanamide]
418 | CC(C)(C)C[C@@H](N)C(=O)Nc1ccc(-c2ccnc3[nH]c(C(F)(F)F)cc23)nc1 [Compound F-104, (2R)-2-Amino-4,4-dimethyl-N-[6-[2-(trifluoromethyl)-1H-pyrrolo[2,3-b]pyridin-4-yl]-3-pyridyl]pentanamide]
728 | CNCC(=O)Nc1ccc(-c2ccnc3[nH]ccc23)cc1 [Compound F-2, N-(4-(1H-pyrrolo[2,3-b]pyridin-4-yl)phenyl)-2-(methylamino)acetamide]
1530 | COc1cc(NC(=O)[C@H](N)C(C)(C)O)ccc1-c1ccnc2[nH]c(C)cc12 [Compound F-168, (2R)-2-Amino-3-hydroxy-N-[3-methoxy-4-(2-methyl-1H-pyrrolo[2,3-b]pyridin-4-yl)phenyl]-3-methyl-butanamide]
59 | Cc1cc2c(-c3ccc(NC(=O)[C@H](N)C(C)(C)C)cc3)ccnc2[nH]1 [Compound F-50, (2R)-2-Amino-3,3-dimethyl-N-[4-(2-methyl-1H-pyrrolo[2,3-b]pyridin-4-yl)phenyl]butanamide]
59 | COc1nc(NC(=O)[C@H](N)CC(C)(C)C)ccc1-c1ccnc2[nH]c(C(F)(F)F)cc12 [Compound F-154, (2R)-2-Amino-N-[6-methoxy-5-[2-(trifluoromethyl)-1H-pyrrolo[2,3-b]pyridin-4-yl]-2-pyridyl]-4,4-dimethyl-pentanamide]
35 | COc1nc(NC(=O)[C@H](N)CC(C)(C)C)ccc1-c1ccnc2[nH]c(C)cc12 [Compound F-153, (2R)-2-Amino-N-[6-methoxy-5-(2-methyl-1H-pyrrolo[2,3-b]pyridin-4-yl)-2-pyridyl]-4,4-dimethyl-pentanamide]
557 | N[C@H](Cc1ccccc1)C(=O)Nc1ccc(-c2ccnc3[nH]ccc23)cc1Cl [Compound F-133, (2R)-2-Amino-N-[2-chloro-4-(1H-pyrrolo[2,3-b]pyridin-4-yl)phenyl]-3-phenyl-propanamide]
